Measurements as given in patent publication EP4772514A1, “MACROCYCLIC COMPOUNDS, PREPARATION METHOD THEREFOR, AND USE THEREOF” (Genfleet Therapeutics (Shanghai) Inc., priority 2023, dated 2025).
Where two headings read alike, the source gives them in different places.

Legend:
p-ERK = experiment: Cell p-ERK assay (HTRF, Advance ERK phospho-T202/Y204 kit) in NCI-H441 cells; assay type: cell-based; settings: NCI-H441, human non-small cell lung cancer cell strain, KRAS G12V mutation, 3 h compound incubation
Protocol: AsPC-1 cells were purchased from ATCC, Cat. No. CRL-1682; NCI-H441 cells were purchased from ATCC, Cat. No. HTB-174; RPMI-1640 medium was purchased from Gibco, Cat. No. 11875-093; FBS was purchased from Gibco, Cat. No. 10099-141C; penicillin/streptomycin double-antibiotic solution (PS) was purchased from Gibco, Cat. No. 15140-122; trypsin (containing EDTA) was purchased from Gibco, Cat. No. 25200-072; DMSO was purchased from VWRAMRESCO, Cat. No. 0231-500ML; 96-well cell culture plates were purchased from Corning, Cat. No. 3599; white-bottomed, opaque 96-well plates were purchased from Cisbio, Cat. No. 66PL96025; Advance ERK phospho-T202/Y204 kit was purchased from Cisbio, Cat. No. 64AERPEH; cell counter was purchased from CHEMOMETEC, model: NC-200; microplate reader was purchased from PerkinElmer, model: EnVision.
AsPC-1, a human pancreatic cancer cell strain endogenously containing a KRAS^G12D mutation, was cultured in a complete medium containing RPMI-1640 + 10% FBS + 1% PS. NCI-H441, a human non-small cell lung cancer cell strain endogenously containing a KRAS^G12V mutation, was cultured in a complete medium containing RPMI-1640 + 10% FBS + 1% PS.
The cells were digested with trypsin (containing EDTA), collected in their corresponding complete media, and counted. The density of the cell suspensions was adjusted with their corresponding complete media, and AsPC-1 cells (10000 cells/well) or NCI-H441 cells (20000 cells/well) were seeded into a 96-well cell culture plate, with the volume of the medium in each well being 80 µL. The cell culture plate was incubated in an incubator at 37 °C with 5% CO2 overnight. A series of 3.16-fold gradient dilutions of a 1000× compound stock solution were prepared with DMSO, and then diluted 200-fold with the complete medium described above to give 5× compound stock solutions. On the day after cell seeding, 20 µL of the 5× compound stock solution was added to each cell culture well. As a result, the final concentration of the compound in the cell culture well became 1×, and the DMSO content in the well was 0.1%. In addition to the compound-treated wells described above, cell-containing DMSO control wells were also set. A complete medium containing 0.5% DMSO was added at 20 µL/well. After the mixture was well mixed, the culture plate was incubated in the incubator at 37 °C with 5% CO2 for another 3 h. The medium was then removed from the culture wells, and 50 µL of cell lysis buffer (from Advance ERK phospho-T202/Y204 kit) was added to each well. The mixture was well mixed, incubated for 30 min, and then transferred to a white-bottomed, opaque 96-well assay plate at 16 µL/well, and separately, 16 µL of cell lysis buffer was added to additional wells (serving as blank wells) in the assay plate. After the transfer was completed, 4 µL of p-ERK HTRF antibody mixture (from Advance ERK phospho-T202/Y204 kit) was added to each well of the assay plate, followed by a 4-hour incubation. The HTRF signal values (RLU) were then measured using a microplate reader, and the inhibition rate of the compound against p-ERK levels was calculated as follows: IR(%) = (RLUDMSO - RLUcompound)/(RLUDMSO - RLUblank) × 100%, where RLUDMSO is the average HTRF signal value from the DMSO control well samples, RLU is the average HTRF signal value from the blank well samples, and RLUcompound is the HTRF signal value from the compound-treated well samples. Using an XLfit software, the IR(%) values were plotted against the logarithm of the compound concentrations, and the dose-response curves were fitted using the four-parameter method to calculate the IC50 values.

NCI-H441 cells = experiment: 3D cell proliferation assay (CellTiter Glo-3D) in NCI-H441 cells; assay type: cell-based; settings: NCI-H441, human lung cancer cell strain, KRAS G12V mutation, 3D culture, 2% FBS, 5 days, read-out: H441 AP IC50
From the text: MIA PaCa-2 cells were purchased from ATCC, Cat. No. CRL-1420; AsPC-1 cells were purchased from ATCC, Cat. No. CRL-1682; NCI-H441 cells were purchased from ATCC, Cat. No. HTB-174; NCI-H1975 cells were purchased from ATCC, Cat. No. CRL-5908; DMEM medium was purchased from Gibco, Cat. No. 11995-065; RPMI-1640 medium was purchased from Gibco, Cat. No. 11875-093; FBS was purchased from Gibco, Cat. No. 10099-141C; penicillin/streptomycin double-antibiotic solution (PS) was purchased from Gibco, Cat. No. 15140-122; Horse serum was purchased from Gibco, Cat. No. 16050130; trypsin (containing EDTA) was purchased from Gibco, Cat. No. 25200-072; DMSO was purchased from VWRAMRESCO, Cat. No. 0231-500ML; 384-well cell culture plates were purchased from Corning, Cat. No. 3830; white-bottomed, opaque 384-well assay plates were purchased from Corning, Cat. No. 3570; CellTiter Glo-3D kit was purchased from Promega, Cat. No. G9683; cell counter was purchased from CHEMOMETEC, model: NC-200; microplate reader was purchased from PerkinElmer, model: EnVision.
MIA PaCa-2, a human pancreatic cancer cell strain endogenously containing a KRAS^G12Cmutation, was cultured in a complete medium containing DMEM + 10% FBS + 2.5% Horse serum + 1% PS. AsPC-1, a human pancreatic cancer cell strain endogenously containing a KRAS^G12D mutation, was cultured in a complete medium containing RPMI-1640 + 10% FBS + 1% PS. NCI-H441 cells, a human lung cancer cell strain endogenously containing a KRAS^G12V mutation, were cultured in a complete medium containing RPMI-1640 + 10% FBS + 1% PS. NCI-H1975, a KRAS wild-type human lung cancer cell strain whose cell proliferation […], was cultured in a complete medium containing RPMI-1640 + 10% FBS + 1% PS.
The cells were digested with trypsin (containing EDTA), collected in their respective low-serum complete media containing 2% FBS (for MIA Paca-2 cell culture: DMEM + 2% FBS + 0.5% Horse serum + 1% PS), and counted. After the cell density was adjusted as required, MIA PaCa-2 cells (200 cells/well), AsPC-1 cells (800 cells/well), NCI-H441 cells (800 cells/well), or NCI-H1975 cells (400 cells/well) were seeded into a 384-well cell culture plate, with the volume of the medium in each well being 45 µL. The cell culture plate was incubated in an incubator at 37 °C with 5% CO2 overnight. A series of 3.16-fold gradient dilutions of a 1000× compound stock solution were prepared with DMSO, and then diluted 100-fold with the complete medium containing 2% FBS described above to give 10× compound stock solutions. On the day after cell seeding, 5 µL of the 10× compound stock solution was added to each cell culture well. As a result, the final concentration of the compound in the cell culture well became 1×, and the DMSO content in the well was 0.1%. In addition to the compound-treated wells described above, cell-containing DMSO control wells (with 5 µL of the complete medium containing 1% DMSO added to each well) and cell-free medium control wells (containing 50 µL of the complete medium with 2% FBS) were also set. The culture plate was incubated in an incubator at 37 °C with 5% CO2 for another 5 days, and then 30 µL of CellTiter-Glo working solution was added to each well. The mixture was well mixed, incubated for 30 min, left to stand at room temperature for 30 min, and then transferred to a white-bottomed, opaque 384-well assay plate at 40 µL/well. The chemiluminescence values (RLU) were measured using a microplate reader, and the cell proliferation inhibition rate for each well was calculated: IR(%) = (RLUDMSO - RLUcompound)/(RLUDMSO - RLUblank) × 100%, where RLUDMSO is the average RLU signal value from the DMSO control well samples, RLUblank is the average RLU signal value from the medium control well samples, and RLUcompound is the RLU signal value from the compound-treated well samples. […]

| Structure (SMILES) | IC50 (p-ERK; Homo sapiens, NCI-H441, 3 h) [nM] | IC50 (NCI-H441 cells; Homo sapiens, NCI-H441, 120 h) [nM] | IC50 (NCI-H441 cells) [nM] | IC50 (p-ERK) [nM] |
| --- | --- | --- | --- | --- |
| CCn1nc2c(c1-c1cc(C#CCN3CCS(=O)(=O)CC3)cnc1[C@H](C)OC)CC(C)(C)COC(=O)[C@@H]1CCCN(N1)C(=O)[C@@H](NC(=O)[C@H](C(C)C)N(C)c1ccc3ncn(C)c3c1)Cc1nc(cs1)/C=C/2 (atropisomer, axis not shown; (Ra)) [Compound Z115, (2S)-N-((4^2Z,8^3S,2E,6S)-1^5-(Ra)-(5-(3-(1,1-dioxidothiomorpholino)prop-1-yn-1-yl)-2-((S)-1-methoxyethyl)pyridin-3-yl)-1^1-ethyl-12,12-dimethyl-7,9-dioxo-8^1,8^2,8^3,8^4,8^5,8^6-hexahydro-1^1H-10-oxa-4(4,2)-thiazola-8(1,3)-pyridazina-1(3,4)-pyrazolocyclotridec-2-en-6-yl)-3-methyl-2-(methyl(1-methyl-1H-benzo[d]imidazol-6-yl)amino)butanamide] | 3.97 | 18.9 |  |  |
| CCn1nc2c(c1-c1cc(C#CCN3CCS(=O)(=O)CC3)cnc1[C@H](C)OC)CC(C)(C)COC(=O)[C@@H]1CCCN(N1)C(=O)[C@@H](NC(=O)[C@H](C(C)C)N1CCC(C)C1=O)Cc1nc(cs1)/C=C/2 (atropisomer, axis not shown; (Ra)) [Compound Z116, (2S)-N-((4^2Z,8^3S,2E,6S)-(Ra)-1^5-(5-(3-(1,1-dioxothiomorpholinyl)prop-1-yn-1-yl)-2-((S)-1-methoxyethyl)pyridin-3-yl)-1^1-ethyl-12,12-dimethyl-7,9-dioxo-8^1,8^2,8^1,8^4,8^5,8^6-hexahydro-1^1H-10-oxo-4 (4,2)-thiazola-8(1,3)-pyridazina-1(3,4)-pyrrolacyclotridecaphan-2-en-6-yl)-3-methyl-2-(3-methyl-2-oxopyrrolidin-1-yl)butanamide] | 115 | 386 |  |  |
| CCn1c(OC)c2c(c1-c1cc(C#CCN3CCS(=O)(=O)CC3)cnc1[C@H](C)OC)CC(C)(C)COC(=O)[C@@H]1CCCN(N1)C(=O)[C@@H](NC(=O)[C@H]1[C@H](C)[C@@H]1C)Cc1nc(cs1)/C=C/2 (atropisomer, axis not shown; (Ra)) [Compound Z191, (1r,2R,3S)-N-((4^2Z,8^3S,2E,6S)-(Ra)-1^5-(5-(3-(1,1-dioxidothiomorpholino)prop-1-yn-1-yl)-2-((S)-1-methoxyethyl)pyridin-3-yl)-1^1-ethyl-1^2-methoxy-12,12-dimethyl-7,9-dioxo-8^1,8^2,8^3,8^4,8^5,8^6-hexahydro-1^1H-10-oxa-4(4,2)-thiazola-8(1,3)-pyridazina-1(3,4)-pyrrolacyclotridecaphan-2-en-6-yl)-2,3-dimethylcyclopropane-1-carboxamide] | 3.92 | 7.19 |  |  |
| CCn1c(-c2cc(N3CCN(C)CC3)cnc2[C@H](C)OC)c2c3cc(ccc31)NC(=O)OC[C@H](NC(=O)[C@H]1[C@H](C)[C@@H]1C)C(=O)N1CCC[C@H](N1)C(=O)OCC(C)(C)C2 (single isomer, unassigned) [Compound Z2-1] | 239 | 374 |  |  |
| CCn1nc2c(c1-c1cc(C#CCN3CCS(=O)(=O)CC3)cnc1C(C)OC)CC(C)(C)COC(=O)C1CCCN(N1)C(=O)C(NC(=O)C(C)Cc1ccnc(NC)c1)Cc1nc(cs1)C=C2 (single isomer, unassigned) [Compound Z52-1] | 52.3 |  | 76.5 |  |
| CCn1nc2c(c1-c1cc(C#CCN3CCS(=O)(=O)CC3)cnc1C(C)OC)CC(C)(C)COC(=O)C1CCCN(N1)C(=O)C(NC(=O)C(C)Cc1ccnc(NC)c1)Cc1nc(cs1)C=C2 (single isomer, unassigned) [Compound Z52-2] |  |  | 25 | 32 |
| CCn1nc2c(c1-c1cc(C#CCN3CCS(=O)(=O)CC3)cnc1C(C)OC)CC(C)(C)COC(=O)C1CCCN(N1)C(=O)C(NC(=O)C(C(C)C)N(C)C(=O)Cn1ccc3ccccc31)Cc1nc(cs1)C=C2 (single isomer, unassigned) [Compound Z54-1] | 150 | 240 |  |  |
